Experimental data: US12440571B2, “Immune agonists” (SHENZHEN UNIVERSITY, priority 2020, dated 2025)
Read-outs that look alike come from different tables or passages of the source.

Experiments:
Assay type in all cases: cell-based
TLR7 = target: T1, TLR7 (Homo sapiens, UniProt Q9NYK1); assay: Detection of TLR7 activation (HEK-Blue Detection), SEAP reporter; settings: for EC50: HEK-Blue hTLR7 cells, 6-16 hrs, absorbance 650 nm
T1 construct: host or cells: HEK-Blue hTLR7 cells (HEK293-derived SEAP reporter line)
T1 sequence (Q9NYK1 27-1049): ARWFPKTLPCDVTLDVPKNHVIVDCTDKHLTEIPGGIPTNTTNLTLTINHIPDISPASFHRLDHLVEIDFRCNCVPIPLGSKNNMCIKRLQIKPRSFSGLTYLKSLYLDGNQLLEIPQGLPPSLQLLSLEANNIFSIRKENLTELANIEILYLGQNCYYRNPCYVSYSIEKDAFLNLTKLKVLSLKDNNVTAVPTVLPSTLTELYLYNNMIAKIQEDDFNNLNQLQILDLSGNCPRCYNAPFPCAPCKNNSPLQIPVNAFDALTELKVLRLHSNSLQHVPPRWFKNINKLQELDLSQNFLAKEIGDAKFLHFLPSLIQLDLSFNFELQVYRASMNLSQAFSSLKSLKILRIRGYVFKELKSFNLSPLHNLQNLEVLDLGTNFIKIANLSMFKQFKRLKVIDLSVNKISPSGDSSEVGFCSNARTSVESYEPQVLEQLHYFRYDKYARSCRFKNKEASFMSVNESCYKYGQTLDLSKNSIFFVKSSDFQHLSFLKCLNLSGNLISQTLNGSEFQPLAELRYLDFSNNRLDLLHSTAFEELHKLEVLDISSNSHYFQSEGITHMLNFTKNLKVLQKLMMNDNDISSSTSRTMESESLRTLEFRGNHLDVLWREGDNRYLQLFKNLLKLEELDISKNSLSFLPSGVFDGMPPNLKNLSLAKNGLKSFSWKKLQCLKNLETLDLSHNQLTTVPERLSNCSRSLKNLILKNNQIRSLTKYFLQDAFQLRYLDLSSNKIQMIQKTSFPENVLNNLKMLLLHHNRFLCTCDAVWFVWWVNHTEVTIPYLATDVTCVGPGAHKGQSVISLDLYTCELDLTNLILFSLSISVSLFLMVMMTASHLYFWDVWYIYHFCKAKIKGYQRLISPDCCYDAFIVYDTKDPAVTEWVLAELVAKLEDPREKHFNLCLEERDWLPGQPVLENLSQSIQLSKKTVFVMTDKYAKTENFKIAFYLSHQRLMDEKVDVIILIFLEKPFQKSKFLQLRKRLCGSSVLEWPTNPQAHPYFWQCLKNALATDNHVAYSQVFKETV
Description: HEK-Blue™hTLR7 cells (purchased from InvivoGen) in a logarithmic growth phase were taken, with a growth medium (Gibco, C11995500BT, Invivo Gen, ant-nr) discarded. The cells were gently rinsed twice by an appropriate amount of 37° C. PBS (Hyclone, SH30256.01), a rinsed PBS was discarded. Thereafter, the cells were added with 2-5 mL of 37° C. PBS, incubated for 1 to 2 minutes, and then scraped by a cell scraper and gently pipetted to be dispersed into a single cell suspension. A hemocytometer was adopted to count the cells and a cell concentration was calculated. After that, a HEK-Blue™ Detection solution (purchased from Invivo Gen) was adopted to adjust the cell concentration of the cell suspension to 2.5×10^4/180 μL per well for cell plating on a 96-well cell culture plate. The HEK-Blue™hTLR7 cells were stimulated according to the designed series of GY compound or drug concentrations (0.01 μM, 0.1 μM, 1 μM, 5 μM, 15 μM, and 30 μM), with 3 replicate wells for each concentration, and were incubated at 37° C., 5% carbon dioxide for 6-16 hrs. After the incubation, the absorbance value was read at 650 nm with a full-wavelength microplate reader (BioTek-Epoch), as listed in Table 2.
Relative induction=(average OD value of experimental group−average OD value of negative control group)/average OD value of negative control group.
Specific details for the above method may be referred to https: • //www.invivogen.com/hek-blue-htlr7; https://www.invivogen.com/sites/default/files/invivogen/products/files/hek_blue_htlr7_tds.pdf.

[1] = test system: murine spleen lymphocytes; assay: Cytokine stimulation of murine spleen lymphocytes, ELISA; settings: for EC50: Lymphocyte
Description: The stimulating effect of a series of GY compounds or drugs on murine spleen lymphocytes was detected by ELISA.
6-week-old Balb/c mice were sacrificed by cervical dislocation, spleens were taken under aseptic conditions. A 1 mL sterile syringe and a 200 mesh cell strainer were adopted to quickly grind and disperse the spleen into individual cells in 4 mL of a murine lymphocyte separation solution (Dakko's, 7211011). A resulting cell homogenate was transferred to a 15 mL centrifuge tube, then 1 mL of a RPMI 1640 medium (Hyclone, SH30809.01) was slowly added. Spleen lymphocytes were separated by a density gradient centrifugation method (800×g, 30 min), washed, red blood cells therein were lysed, such that a dispersed spleen lymphocyte suspension was obtained. Cells were counted by a hemocytometer, to calculate the cell concentration. A RPMI 1640 complete medium was adopted to adjust the cell suspension to a concentration of 1×10^6/ml/well, and the cells were then plated on a 24-well cell culture plate (Corning, 3524).
Murine spleen lymphocytes were stimulated according to the gradient concentrations of the series of GY compounds or drugs, and incubated in a 37° C., 5% carbon dioxide incubator for 24 hrs.
• (1) Coating: a Capture antibody (primary antibody, purchased from Invitrogen) was diluted with a 1×Coating Buffer (coating buffer, purchased from Invitrogen) to a recommended concentration, and 100 μL of a resulting diluted solution was added to each well of a 96-well microtiter plate, the plate was sealed with a sealing film at 4° C. overnight. • (2) Washing: a liquid in each well was discarded, then 300 μL of a PBST working solution was added to each well and kept for 1 min, thereafter, the liquid therein was discarded. The washing process was repeated 3 times. • (3) Blocking: 200 μL of a blocking solution was added to each well. The plate was sealed with a sealing film, and placed on a shaker and incubated at room temperature for 1 hr, then washed and patted to be dry. • (4) Sample incubation: a sample was collected and centrifuged to collect a supernatant. Standards, samples, negative controls, and blank controls were provided in the 96-well microtiter plate, and each concentration or sample were provided with 2 replicates. 100 μL of a standard or sample was added to each well, thereafter, the plate was sealed with a sealing film, incubated on a shaker at room temperature for 1 hr or overnight at 4° C., then washed and pated to be dry. • (5) Secondary antibody incubation: the detection antibody (secondary antibody, purchased from Invitrogen) was diluted to a recommended concentration with a dilution buffer, 100 μL of a secondary antibody was added to each well. After being sealed with a sealing film, the plate was incubated on a shaker at room temperature for 1 hr, then washed and patted to be dry. • (6) Avidin-HRP incubation: Avidin-HRP (horseradish peroxidase marker, purchased from Invitrogen) was diluted to the recommended concentration with a dilution buffer, 100 μL of Avidin-HRP was added to each well. After being sealed with a sealing film, the plate was placed on a shaker and incubated at room temperature for 30 mins, washed 5-7 times by the process of step 2), and patted to be dry. • (7) TMB color development: 100 μL of a TMB color development solution (purchased from Invitrogen) was added to each well, for carrying out reaction for 15 mins at room temperature in the dark. • (8) Stopping reaction: 50 μL of 1M H2SO4 solution was added to each well. • (9) Reading an absorbance value by a microplate reader: the OD value at 450 nm wavelength was read. A standard curve and a parameter nonlinear regression equation were drawn, and a sample concentration was calculated according to the obtained formula.

[2] = test system: human lymphoma Daudi B cells; assay: CCK8 growth inhibition, Daudi B; settings: CCK8 method; read-out: IC50 of inhibitory activity on tumor cell growth, Daudi B
[3] = test system: human lymphoma Raji cells; assay: CCK8 growth inhibition, Raji; settings: CCK8 method, read-out: IC50 of inhibitory activity on tumor cell growth, Raji
[4] = test system: human leukemia HL-60 cells; assay: CCK8 growth inhibition, HL60; settings: read-out: IC50 of inhibitory activity on tumor cell growth, HL60
[5] = mouse immune cells (spleen lymphocytes), 24 hrs, ELISA, read-out: IFN-gamma EC50 of cytokine stimulating activity
[6] = mouse immune cells (spleen lymphocytes), 24 hrs, ELISA, read-out: IL-6 EC50 of cytokine stimulating activity
[7] = mouse immune cells (spleen lymphocytes), 24 hrs, ELISA, read-out: TNF-alpha EC50 of cytokine stimulating activity
[8] = Homo sapiens, HL-60, CCK8 method

Row | SMILES | EC50 (TLR7; read-out: TLR7(EC50/μM)) [µM] | EC50 [1, 5] [nM] | EC50 [1, 6] [nM] | EC50 [1, 7] [nM] | also measured
1 | CCCCOc1nc(N)c2nc(O)n(Cc3cn(CCOCCOCCOCCNC(=O)c4cc(/N=N/c5ccc(S(=O)(=O)Nc6ccccn6)cc5)ccc4O)nn3)c2n1 [GY113] | 1.87 |  |  |  | 
2 | C#CCn1c(O)nc2c(N)nc(OCCCC)nc21 [GY100] | 2.25 | 104 | < 1 | < 1 | TLR7 agonist activity (in words) (TLR7): highly active TLR7 agonist
3 | CCCCOc1nc(N)c2nc(O)n(Cc3cn(CCOCCOCCOCCNC(=S)NC(CCC(=O)NC(CS)C(=O)NCC(=O)O)C(=O)O)nn3)c2n1 (stereo not shown) [GY126] | 0.92 |  |  |  | 
4 | CCCCOc1nc(N)c2nc(O)n(Cc3cn(CCOCCOCCOCCNC(=S)N4CCC(C5CCNc6c(C(N)=O)c(-c7ccc(Oc8ccccc8)cc7)nn65)CC4)nn3)c2n1 (single isomer, unassigned) [GY134] | 1.99 |  |  |  | IC50 [2]: 6990 nM; IC50 ([3]; Homo sapiens, Raji): 5120 nM
5 | C=C(CC(=O)NCCOCCOCCOCCn1cc(Cn2c(O)nc3c(N)nc(OCCCC)nc32)nn1)C(=O)N1CCC(C2CCNc3c(C(N)=O)c(-c4ccc(Oc5ccccc5)cc4)nn32)CC1 (single isomer, unassigned) [GY137] | 2.92 |  |  |  | IC50 ([4]; CCK8 method): 27000 nM; IC50 [2]: 24600 nM; IC50 [3]: 37200 nM
6 | CCCCOc1nc(N)c2nc(O)n(Cc3cn(CCOCCOCCOCCNC(=O)CCC(=O)Nc4cccc5c4CN(C4CCC(=O)NC4=O)C5=O)nn3)c2n1 (stereo not shown) [GY110] | 3.17 |  |  |  | 
7 | CCCCOc1nc(N)c2nc(O)n(Cc3cn(CCOCCOCCOCCNC(=O)c4cc5c(Oc6ccc(NC(=O)NC7CC7)c(Cl)c6)ccnc5cc4OC)nn3)c2n1 [GY114] | 1.98 |  |  |  | 
8 | CCCCOc1nc(N)c2nc(O)n(Cc3cn(CCOCCOCCOCCN=C=S)nn3)c2n1 [GY106] |  |  |  |  | EC50 (TLR7; TLR7(EC50/μM)): 0.08 µM; EC50 ([1]; Mus musculus, 24 h, read-out: IFN-gamma EC50 of cytokine stimulating activity): 2830 nM; EC50 ([1]; Mus musculus, 24 h, read-out: IL-6 EC50 of cytokine stimulating activity): < 1 nM; EC50 ([1]; Mus musculus, 24 h, read-out: TNF-alpha EC50 of cytokine stimulating activity): < 1 nM
9 | CCCCOc1nc(N)c2nc(O)n(Cc3cn(CCOCCOCCOCCNC(=S)N4CCC(C5CCNc6c(C(N)=O)c(-c7ccc(Oc8ccccc8)cc7)nn65)CC4)nn3)c2n1 (single isomer, unassigned) [GY135] | 9.07 |  |  |  | IC50 [4, 8]: 13100 nM; IC50 [2]: 14600 nM; IC50 [3]: 7600 nM

The next lines start with results.

Row | EC50 (TLR7; read-out: TLR7(EC50/μM)) [µM] | EC50 [1, 5] [nM] | EC50 [1, 6] [nM] | EC50 [1, 7] [nM] | SMILES | also measured
10 | 0.65 | 983 | 653 | 153 | C=C(CC(=O)NCCOCCOCCOCCn1cc(Cn2c(O)nc3c(N)nc(OCCCC)nc32)nn1)C(=O)O [GY109] | 
11 | 0.29 |  |  |  | CCCCOc1nc(N)c2nc(O)n(Cc3cn(CCCCCCCCCCCCCCC(=O)O)nn3)c2n1 [GY145] | 
12 | 0.003 | 122 | 1050 | 7 | CCCCOc1nc(N)c2nc(O)n(Cc3cn(CCOCCOCCOCC(=O)O)nn3)c2n1 [GY101] | 
13 |  |  | 8300 | 8350 | CC(C)Cn1cnc2c(N)nc3ccccc3c21 [Imiquimod, reference compound] | IFN-gamma EC50 of cytokine stimulating activity ([1]; mouse immune cells (spleen lymphocytes), 24 hrs, ELISA): No fit
14 | 0.86 | 3340 | 1510 | 2620 | CCCCOc1nc(N)c2nc(O)n(Cc3cn(CCCCCCCCCCCCP(=O)(O)O)nn3)c2n1 [GY103] | 
15 |  | 7860 | 1100 | 58 | CCCCOc1nc(N)c2nc(O)n(Cc3cn(CCOCCOCCOCC(=O)NO)nn3)c2n1 [GY163] | 
16 |  | 56 | < 1 | < 1 | CCOCc1nc2c(N)nc3ccccc3c2n1CC(C)(C)O [Compound R848, Resiquimod, reference compound] | 
17 | 0.22 |  |  |  | CCCCOc1nc(N)c2nc(O)n(Cc3cn(CCOCCOCCOc4c(OC)cc(/C=C/C(=O)N5CCC=CC5=O)cc4OC)nn3)c2n1 [GY117] | IC50 [4, 8]: 19000 nM
18 |  | 10 | 5930 | 1 | CCCCOc1nc(N)c2nc(O)n(Cc3cn(CCOCCOCCOCCNC(=S)NNCCc4ccccc4)nn3)c2n1 [GY164] | 
19 | 0.79 | 1070 | 637 | 1440 | CCCCOc1nc(N)c2nc(O)n(Cc3cn(CCOCCOCCOCCN)nn3)c2n1 [GY102] | 
